Data from patent US20130177921A1, “Detection of Damage to DNA” (priority 2010, published 2013).

Columns and labels:
[1] = test system: MCF7 human breast cancer cells; assay: Dox-induced DNA damage (AP sites) in MCF7 cells used as surrogate CTCs, extended DNA fibers; assay type: cell-based
Source text: MCF7 cells were exposed to Doxorubicin (Dox) in culture (1) or exposed to Dox in culture and then processed using the Mag Sweeper Oft MCF7 cells processed identically but not treated with Dox served as controls in each case. Cells were next were recovered, put onto slides and lysed and DNA extended
MCF7 cells were exposed to Doxorubicin (Dox) alone (first three bars) or exposed to Dox first then isolated using Mag Sweeper (fourth, filth, sixth bars). Thereafter. DNA was extended on slides following cell lysis and DNA and sites of DNA damage were stained with fluorescent probes Images of extended fluorescently-labeled DNA fibers were obtained and DNA content and DNA damage site number were determined by computer analysis of the images. Results of the analysis of DNA damage in the bars is reported with the ordinate of the graph scaled as the number of DNA damage sites, in this case AP sites, per 10^6 nucleotides in length
In an initial study, MCF7 human breast cancer cells, a line of human breast adenocarcinoma, were used to simulated CTCs. The “simulated CTCs” were exposed to 0, 0.33, and 0.66 μM doxorubicin (Dox). Doxorubicin is a principal chemotherapeutic agent for breast cancer and the doses of the drug were chosen to approximate dose levels achieved in patients. In one experiment, untreated cells and cells treated with Dox were harvested 16 hours after starting sham or drug treatment and slides of extended DNA were prepared from the untreated and treated cells. The amount of DNA damage for each treatment condition was then determined. This experiment was designed to test whether drug exposure of the cells alone increased DNA damage in the form of abasic (AP) sites (FIG. 13, upper path). Next, untreated cells and cells treated with Dox were collected 16 hours after starting sham or drug treatment. The cells were subjected to a CTC isolation technique referred to as the ‘Mag Sweeper’ process (15) and the recovered cells' DNA harvested and placed on slides to extend the DNA and then the DNA analyzed for damage as described herein ([…], lower path).

DT40 cells [2] = test system: DT40 cells
Protocol: Briefly, cells growing in culture were first labeled for 10 min in medium with 100 μM iododeoxyurine (IdU), and then centrifuged to remove the medium containing IdU. […] After exposure to the second halogenated nucleotide, the cells were harvested by centrifugation and resuspended in ice cold PBS at about 200 cells/μl.
For the detection of IdU and CIdU within the DNA fiber spreads, the slides were treated with 2.5 M HCl for 30 min, washed several times in PBS, and blocked in 3% bovine serum albumin in PBS for 60 min. […]
To determine the number of nt that had been replicated (i.e., incorporated IdU or CIdU) in normal culture conditions, the total amount of fluorescence from both IdU and CIdU was measured. The number of AP sites co-localized in areas where DNA had replicated was assessed using the co-localization function provided by Image J. In this series of experiments, AP sites were marked by blue signal and those that co-localized with areas undergoing replication were counted using the particle counter function of Image J. To determine the amount of replicating DNA expressed in nt, the total amount of red and green fluorescence (IdU and CIdU, respectively) was determined and then divided by fluorescence intensity per nt, as described above.
To determine the number of AP sites per unit length of DNA in areas undergoing replication, cells were first pulsed with IdU (a nucleotide precursor), and then pulsed with CIdU (a different precursor). […] Fluorescently labeled AP sites were readily detected and could be quantified with respect to the fluorescent tracks of IdU and CIdU labeled DNA (see Materials and Methods).

DT40 cells [3] = settings: H2O2-treated versus untreated cells
Protocol: (§1) Avian DT40 cells (38, 39) were grown at 39.5° C., the normal Avian body temperature, in a humidified atmosphere supplemented with 5% CO2 as a suspension in RPMI-1640 (Invitrogen) supplemented with 10% fetal bovine serum (Sigma), 1% chicken serum (Sigma and Invitrogen), and containing 100 μg/ml penicillin and 100 μg/ml streptomycin (Invitrogen).

DT40 cells [4] = settings: cells exposed to 20 μM H2O2
Protocol: as §1
DNA was isolated from DT40 cells in normal culture conditions or DT40 cells experiencing oxidative stress and processed for slot-blot analysis as described previously (2).

Row | Structure (SMILES) | DNA damage (AP sites) after Mag Sweeper isolation ([1]; 0.33 and 0.66 μM Dox, 16 hours, then cells processed with Mag Sweeper, versus untreated cells) | DNA damage (level of AP sites) ([1]; 0.33 and 0.66 μM Dox, harvested 16 hours after start, Dox alone, versus untreated cells) | dose dependence of DNA damage ([1]; 0.66 versus 0.33 μM Dox, with and without Mag Sweeper) | number of AP sites per 10^6 nt in CIdU tracks (DT40 cells [2]; replicating DNA labeled after H2O2 exposure (20 μM, FIG. 3)) [per 10^6 nt] | number of AP sites per 10^6 nt in IdU tracks (DT40 cells [2]; replicating DNA labeled before H2O2 exposure (20 μM, FIG. 3)) [per 10^6 nt] | increase of AP sites per 10^6 nt in replicating regions exposed to H2O2 (DT40 cells [2]; replicating regions versus global DNA, H2O2-exposed cells) [%] | clustering of AP sites (DT40 cells [3]) | number of AP sites per 10^6 nt, slot blot analysis (DT40 cells [4]) [AP sites per 10^6 nt]
1 | COc1cccc2c1C(=O)c1c(O)c3c(c(O)c1C2=O)C[C@@](O)(C(=O)CO)C[C@@H]3O[C@H]1C[C@H](N)[C@H](O)[C@H](C)O1 [Dox, Doxorubicin] | AP sites increased after Dox treatment | notably increased DNA damage | more damage detected with the higher dose | – | – | – | – | –
2 | OO [H2O2, hydrogen peroxide] | – | – | – | 20.8 | 12.9 | 50 to 150 | more common | 7.7
